Tests used:
Test in all cases: relative viability (nuclei count vs DMSO), 5 days (fraction); higher = more cells survive
FG-4592 + Vorinostat = compound: Cc1nc(C(=O)NCC(=O)O)c(O)c2ccc(Oc3ccccc3)cc12 [FG-4592] + O=C(CCCCCCC(=O)Nc1ccccc1)NO [Vorinostat] (partner 1 µM)
How it was run: (§1)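 Dosing by pin tool came one day after lung cancer cell lines were seeded in 1536-well plates, using either one drug or a fixed anchor-drug dose plus five library-drug doses (not always all listed) in √10 steps. After 5 days, nuclei were counted on 4× images. Relative viability is treated-well nuclei count divided by vehicle-well nuclei count, and values are medians of duplicate plates.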

FG-4592 + Phenformin = compound: Cc1nc(C(=O)NCC(=O)O)c(O)c2ccc(Oc3ccccc3)cc12 [FG-4592] + N=C(N)NC(=N)NCCc1ccccc1 [Phenformin] (partner 250 µM)
How it was run: as §1

IU1-47 + Palbociclib = compound: CC1=CC(=C(N1C2=CC=C(C=C2)Cl)C)C(=O)CN3CCCCC3 [IU1-47] + CC(=O)c1c(C)c2cnc(Nc3ccc(N4CCNCC4)cn3)nc2n(C2CCCC2)c1=O [Palbociclib] (partner 0.5 µM)
How it was run: as §1

FG-4592 + Decitabine = compound: Cc1nc(C(=O)NCC(=O)O)c(O)c2ccc(Oc3ccccc3)cc12 [FG-4592] + Nc1ncn([C@H]2C[C@H](O)[C@@H](CO)O2)c(=O)n1 [Decitabine] (partner 2 µM)
How it was run: as §1

Cell Line: UMC-11
- relative viability (FG-4592 + Vorinostat; first compound 0.08 µM): 0.363
- relative viability (FG-4592 + Vorinostat; first compound 0.253 µM): 0.333
- relative viability (FG-4592 + Vorinostat; first compound 0.8 µM): 0.361
- relative viability (FG-4592 + Vorinostat; first compound 2.53 µM): 0.511
- relative viability (FG-4592 + Vorinostat; first compound 8 µM): 0.332
- relative viability (FG-4592 + Phenformin; first compound 0.08 µM): 0.323
- relative viability (FG-4592 + Phenformin; first compound 0.253 µM): 0.291
- relative viability (FG-4592 + Phenformin; first compound 0.8 µM): 0.322
- relative viability (FG-4592 + Phenformin; first compound 2.53 µM): 0.314
- relative viability (FG-4592 + Phenformin; first compound 8 µM): 0.395
- relative viability (IU1-47 + Palbociclib; first compound 0.08 µM): 0.353
- relative viability (IU1-47 + Palbociclib; first compound 0.253 µM): 0.339
- relative viability (IU1-47 + Palbociclib; first compound 0.8 µM): 0.333
- relative viability (IU1-47 + Palbociclib; first compound 2.53 µM): 0.322
- relative viability (IU1-47 + Palbociclib; first compound 8 µM): 0.351
- relative viability (FG-4592 + Decitabine; first compound 0.08 µM): 0.54
- relative viability (FG-4592 + Decitabine; first compound 0.253 µM): 0.604
- relative viability (FG-4592 + Decitabine; first compound 0.8 µM): 0.532
- relative viability (FG-4592 + Decitabine; first compound 2.53 µM): 0.423
- relative viability (FG-4592 + Decitabine; first compound 8 µM): 0.365

From the supplement of paper PMC10307832
